{
  "source": "paper PMC10475101",
  "about": "“Selective steroidogenic cytochrome P450 haem iron ligation by steroid-derived isonitriles” (Communications Chemistry, 2023)",
  "key": {"[1]": {"target": "T1, CYP17A1 (Homo sapiens, UniProt P05093)", "T1 construct": "made in house", "T1 sequence (P05093 1-508)": "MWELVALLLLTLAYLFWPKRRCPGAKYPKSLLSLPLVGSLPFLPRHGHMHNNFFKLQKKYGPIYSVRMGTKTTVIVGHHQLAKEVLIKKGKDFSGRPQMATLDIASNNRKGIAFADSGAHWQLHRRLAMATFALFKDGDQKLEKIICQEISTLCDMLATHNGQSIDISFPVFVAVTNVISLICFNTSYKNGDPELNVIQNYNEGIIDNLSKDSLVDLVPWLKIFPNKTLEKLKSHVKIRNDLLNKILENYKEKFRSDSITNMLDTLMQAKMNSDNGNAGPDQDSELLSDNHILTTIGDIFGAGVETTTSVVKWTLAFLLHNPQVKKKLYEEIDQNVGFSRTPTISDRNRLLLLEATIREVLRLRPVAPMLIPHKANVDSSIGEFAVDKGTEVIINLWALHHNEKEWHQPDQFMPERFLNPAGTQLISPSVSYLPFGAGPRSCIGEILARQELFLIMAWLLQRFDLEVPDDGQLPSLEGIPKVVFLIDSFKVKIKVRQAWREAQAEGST", "experiment": "Ligand binding assay (UV-visible difference spectra titration)", "procedure": "(§1) (Adapted from DeVore, et al.)[25] Ligand interaction with the heme iron was evaluated by titrating ligands into a cuvette containing purified CYP17A1[14], CYP2D6 L230D/L231R[26], or CYP3A4[27] and measured using a UV-visible scanning spectrophotometer. Enzyme was diluted to 0.2 µM in 100 mM potassium phosphate buffer (pH 7.4), 20% glycerol, and 100 mM sodium chloride and divided equally between two 5 mL cuvettes to evaluate high-affinity binding. Ligands dissolved in dimethylsulfoxide (DMSO) were added to the sample cuvette and an equal volume of DMSO to the reference cuvette. Difference spectra were recorded from 300 to 500 nm after equilibration of enzyme and ligand. Binding to the enzyme was measured as the difference in maximal and minimal absorbance: A387—A419 for pregnanolone and 3-formyl pregnanolone, and A435—A393 for compound 1 with CYP17A1; A434—A414 for compound 1 with CYP3A4 and CYP2D6. The dissociation constant and maximum spectral change were calculated using tight-binding or quadratic equation. All data fitting was accomplished using GraphPad Prism 9. Details of fitting are provided in Supplementary Information, and numerical data used to generate graphs in Figs. 2, 4 and 5 are provided in Supplementary Data 3 in Excel format."}, "[2]": {"target": "T2, CYP2D6 L230D/L231R (Homo sapiens, UniProt P10635, L230D/L231R)", "T2 construct": "made in house", "T2 sequence (P10635 whole entry L230D/L231R)": "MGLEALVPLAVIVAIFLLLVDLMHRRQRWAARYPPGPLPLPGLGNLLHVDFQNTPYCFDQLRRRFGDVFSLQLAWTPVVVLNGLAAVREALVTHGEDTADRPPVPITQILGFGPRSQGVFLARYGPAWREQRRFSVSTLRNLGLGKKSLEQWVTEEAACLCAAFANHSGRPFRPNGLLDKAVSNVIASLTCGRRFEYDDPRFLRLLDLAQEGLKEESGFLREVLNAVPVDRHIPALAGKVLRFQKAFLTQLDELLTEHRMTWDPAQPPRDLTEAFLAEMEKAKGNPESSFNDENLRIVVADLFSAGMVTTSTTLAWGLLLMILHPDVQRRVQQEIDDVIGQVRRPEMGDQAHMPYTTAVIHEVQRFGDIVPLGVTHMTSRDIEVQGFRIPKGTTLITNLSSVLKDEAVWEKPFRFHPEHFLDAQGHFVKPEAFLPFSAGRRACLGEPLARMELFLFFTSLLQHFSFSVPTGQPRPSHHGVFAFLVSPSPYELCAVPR", "experiment": "Ligand binding assay (UV-visible difference spectra titration)", "procedure": "as §1"}, "[3]": {"target": "CYP106A2 (Priestia megaterium, UniProt Q06069)", "sequence (Q06069 whole entry)": "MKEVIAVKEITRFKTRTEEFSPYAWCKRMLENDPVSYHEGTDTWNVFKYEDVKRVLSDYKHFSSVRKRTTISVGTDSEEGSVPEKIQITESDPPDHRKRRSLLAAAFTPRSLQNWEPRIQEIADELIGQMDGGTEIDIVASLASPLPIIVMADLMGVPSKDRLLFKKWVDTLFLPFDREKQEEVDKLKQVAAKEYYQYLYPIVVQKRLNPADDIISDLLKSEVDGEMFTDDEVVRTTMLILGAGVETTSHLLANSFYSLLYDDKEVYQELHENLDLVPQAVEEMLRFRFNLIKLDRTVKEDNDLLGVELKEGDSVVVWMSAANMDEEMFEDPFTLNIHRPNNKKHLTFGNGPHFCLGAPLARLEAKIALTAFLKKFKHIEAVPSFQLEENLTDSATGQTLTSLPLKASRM", "experiment": "Absorbance difference spectra titration of CYP106A2", "type": "binding, bacterial", "conditions": "1 µM CYP106A2", "procedure": "Fig. 5 CYP106A2 interaction with steroidal isonitriles. […] Maximum concentration of 2 (light blue trace) is 20 µM. […] Maximum concentration of 4 is ~10 µM (blue trace). C Overlay of 800 MHz ^1H,^15N-TROSY-HSQC spectra of ^15N-Gly-labeled CYP106A2 with levopimaric acid p-benzoquinone Diels-Alder adduct bound after reduction with sodium dithionite and treatment with carbon monoxide (red), or with 7,17-(bis)isonitrile 4 (blue) after anaerobic reduction with sodium dithionite."}, "[4]": {"target": "T1, CYP17A1", "experiment": "Reduction and reoxidation assay", "procedure": "(§2) Reduction of the 1-bound P450 complex was observed by taking a baseline absorbance reading from 400 to 500 nm using a UV-visible scanning spectrophotometer, of a 1 cm quartz cuvette containing 1 µM P450, with compound 1 at a saturating concentration (i.e., ≥ concentration needed to reach ΔAmax), in binding assay buffer (100 mM potassium phosphate buffer (pH 7.4), 20% glycerol, and 100 mM sodium chloride). A small quantity of sodium dithionite (spatula tip-full) was then added to the cuvette, and the spectra were recorded periodically over time to observe the formation of peaks indicating the reduction (~426 and 456 nm) and subsequent reoxidation (~435 nm) of the complex. The total time course for Fig. 6B was 103 min and 37 s. Numerical data used to generate graphs in Fig. 6 are provided in Supplementary Data 3 in Excel format.\n(§3) 185 S2) Ligand binding and inhibition assays\n(§4) 186 Reduction and reoxidation assays. Reduction of the isonitrile-bound P450 complex was observed by taking\n(§5) 187 a baseline absorbance reading from 400 to 500 nm using a UV-visible scanning spectrophotometer, of a 1cm\n(§6) 188 quartz cuvette containing 1 µM P450, with the selected isonitrile compound at a saturating concentration\n(§7) 189 (i.e., ≥ concentration needed to reach ΔAmax), in the same buffer used for binding assays (100 mM potassium\n(§8) 190 phosphate buffer (pH 7.4), 20% glycerol, and 100 mM sodium chloride). A small quantity of sodium dithionite\n(§9) 191 (spatula tip-full) was then added to the cuvette, and the spectra were recorded periodically over time to\n(§10) 192 observe the formation of peaks indicating the reduction (~426 and 456 nm) and subsequent reoxidation\n(§11) 193 (~435 nm) of the complex. The total time course for Figure 6B was 103 minutes and 37 seconds. […]\n(§12) 217 initiated by adding NADPH to a final concentration of 1 mM. After 20 minutes, metabolism was quenched\n(§13) 218 by adding 50 µL acetonitrile and placed on ice. The reaction vials were centrifuged at 5000 xg for 5 minutes\n(§14) 219 to pellet the precipitated protein, then the supernatant was injected onto a C18 column (Phenomenex, Luna,\n(§15) 220 50 x 4.6 mm) for HPLC. Separation on HPLC was obtained using a mobile phase of 45%/55% water/methanol\n(§16) 221 for 40 minutes. A standard curve of known product concentrations was used to convert the area under the\n(§17) 222 curve to the amount of product produced.\n(§18) 224 S3) Crystallization of 1-CYP17A1 complex and X-ray diffraction\n(§19) 225 Protein Crystallization and Structure Determination. CYP17A1 was saturated with 3β-formyl-5α\n(§20) 226 pregnanolone-20(R)-isonitrile (verified by 430 nm Soret peak) and prepared for crystallization via hanging"}, "[5]": {"target": "T3, CYP2D6 (Homo sapiens, UniProt P10635, L230D/L231R)", "T3 construct": "made in house", "T3 sequence (P10635 whole entry L230D/L231R)": "as the sequence (P10635 whole entry L230D/L231R) above", "experiment": "Reduction and reoxidation assay", "procedure": "as §2, §3, §4, §5, §6, §7, §8, §9, §10, §11, §12, §13, §14, §15, §16, §17, §18, §19, §20"}, "[6]": {"target": "T4, CYP3A4 (Homo sapiens, UniProt P08684)", "T4 construct": "made in house", "T4 sequence (P08684 whole entry)": "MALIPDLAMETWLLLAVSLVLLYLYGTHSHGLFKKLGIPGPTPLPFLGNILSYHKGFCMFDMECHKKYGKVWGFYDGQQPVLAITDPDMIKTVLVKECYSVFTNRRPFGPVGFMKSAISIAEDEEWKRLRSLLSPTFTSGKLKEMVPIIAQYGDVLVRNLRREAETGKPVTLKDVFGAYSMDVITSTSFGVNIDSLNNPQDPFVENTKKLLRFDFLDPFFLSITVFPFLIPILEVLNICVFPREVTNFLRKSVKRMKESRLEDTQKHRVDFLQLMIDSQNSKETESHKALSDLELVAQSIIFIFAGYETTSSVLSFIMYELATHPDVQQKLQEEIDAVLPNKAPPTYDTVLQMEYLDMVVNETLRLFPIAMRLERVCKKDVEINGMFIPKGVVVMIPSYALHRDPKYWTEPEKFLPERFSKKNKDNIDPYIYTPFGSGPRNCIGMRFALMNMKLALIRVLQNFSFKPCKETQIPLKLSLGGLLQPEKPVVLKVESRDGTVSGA", "procedure": "as §2, §3, §4, §5, §6, §7, §8, §9, §10, §11, §12, §13, §14, §15, §16, §17, §18, §19, §20"}, "[7]": {"conditions": "CYP17A1/20-(R)-1 complex reduced by sodium dithionite"}, "[8]": {"conditions": "CYP2D6/20-(R)-1 complex reduced by sodium dithionite"}, "[9]": {"conditions": "CYP3A4/20-(R)-1 complex reduced by sodium dithionite"}},
  "note": "Where “and” joins values, the source holds several entries; their conditions need not be identical. Equal values may be shown once. Entries after “also recorded” stand apart in the source; their conditions may differ.",
  "data": [
    {"compound": "[C-]#[N+][C@H](C)[C@H]1CC[C@H]2[C@@H]3CC[C@H]4C[C@@H](OC=O)CC[C@]4(C)[C@H]3CC[C@]12C", "note": "[Compound 1, 3β-formyl-5α-pregnanolone-(R)-20-isonitrile]", "values": [
      {"measurement": "Soret peak shift in difference spectra", "setting": "[1]; 2:1 mixture of C20 epimers of 1", "value": 430, "unit": "nm"},
      {"measurement": "Soret peak after titration (heme spectral shift from 417 nm water-bound)", "setting": "[1]; ferric CYP17A1, 430 nm = Fe—C isonitrile bond, 424 nm = type II Fe—N", "value": 430, "unit": "nm"},
      {"measurement": "dissociation constant estimate (tight binding equation fit)", "setting": "[1]; protein 200 nM, 95% CI undefined to 1.7 nM", "value": 149, "unit": "aM"},
      {"measurement": "dissociation constant for CYP2D6 relative to CYP17A1", "setting": "[2]; CYP2D6 versus CYP17A1", "value": 3, "unit": "million"},
      {"measurement": "Kd", "setting": "[2]; protein 200 nM, 5 cm cuvette, n = 2, 95% CI undefined –6.4 nM, read-out: dissociation constant (Kd)", "value": "0.49 nM and ~0.49 nM"},
      {"measurement": "Fe—CN—R bond formation on titration", "setting": "[2]; titration of CYP2D6", "value": "indicated the formation of the Fe—CN—R bond"},
      {"measurement": "spectral response / binding mode on CYP106A2", "setting": "[3]", "value": "does not cause spectral perturbation"},
      {"measurement": "spectral response / binding mode on CYP106A2", "setting": "[3]; listed as 20-(R)-1", "value": "no evidence for formation of a Fe—C bonded complex"},
      {"measurement": "reoxidation of reduced complex in air", "setting": "[4]; CYP17A1/20-(R)-1, in air over 105 min", "value": "largely resistant to re-oxidation; also recorded: little reoxidation"},
      {"measurement": "split Soret after reduction, higher-wavelength maximum", "setting": "[4]; [7]", "value": 454, "unit": "nm"},
      {"measurement": "split Soret after reduction, lower-wavelength maximum", "setting": "[4]; [7]", "value": "430 nm and 429.5 nm"},
      {"measurement": "Soret peak after reoxidation in air", "setting": "[5]; CYP2D6/20-(R)-1", "value": "~ 435 nm and 437 nm"},
      {"measurement": "reoxidation of reduced complex in air", "setting": "[5]; CYP2D6/20-(R)-1, same time period", "value": "re-oxidizes in air"},
      {"measurement": "split Soret after reduction, higher-wavelength maximum", "setting": "[5]; [8]", "value": 455, "unit": "nm"},
      {"measurement": "split Soret after reduction, lower-wavelength maximum", "setting": "[5]; [8]", "value": 431, "unit": "nm"},
      {"measurement": "Soret peak after reoxidation in air", "setting": "[6]; CYP3A4/20-(R)-1, 103 min", "value": "~ 435 nm and 437.5 nm"},
      {"measurement": "reoxidation of reduced complex in air", "setting": "[6]; CYP3A4/20-(R)-1, 103 min", "value": "slowly re-oxidizes"},
      {"measurement": "split Soret after reduction, higher-wavelength maximum", "setting": "[6]; [9]", "value": 454, "unit": "nm"},
      {"measurement": "split Soret after reduction, lower-wavelength maximum", "setting": "[6]; [9]", "value": 428, "unit": "nm"}
    ]}
  ]
}
